Patent publication US20020119995A1, “Inverse thiazolylamide derivatives” (priority 2000, published 2002)
Where two headings read alike, the source gives them in different places.

How the values were obtained:
HSV-1 F = experiment: anti-HSV screening test (cytopathogenic effect, fluorescein diacetate readout) in Vero cells, HSV-1 F; assay type: cell-based; settings: read-out: IC50 [μM] HSV-1 F/Vero
Experimental: (§1) HSV (HSV-1 Walki, HSV-1F or HSV-2G) was cultivated on Vero cells (ATCC CCL-81) under the following conditions. The cells were grown in M199 medium (5% foetal calf serum, 2 mM glutamine, 100 IU/ml penicillin, 100 μg/ml streptomycin) in cell culture bottles at 37° C. and 5% CO2. The cells were split twice per week, in each case 1:4. For the infection, the medium was removed, the cells were washed with Hank's solution, detached using 0.05% trypsin, 0.02% EDTA (Seromed L2143) and incubated at a density of 4×10^5 cells per ml under the abovementioned conditions for 24 hours. The medium was then removed and the virus solution was added at an m.o.i. of <0.05 in a volume of 2 ml per 175 cm^2 of surface. The medium was incubated under the conditions mentioned for one hour and then made up to a volume of 50 ml per 175 cm^2 bottle. […] The virus was released by freezing (−80° C.) and thawing (37° C.) the cultures twice. Cell debris was removed by centrifugation (300 g, 10 min, 4° C.) and the supernatant was frozen down in aliquots at −80° C.
(§2) The anti-HSV action was determined in a screening test system in 96-well microtitre plates using various cell lines of neuronal, lymphoid and epithelial origin, such as, for example, Vero (kidney cell line of the green monkey), MEF (murine embryonal fibroblasts), HELF (human embryonal fibroblasts), NT2 (human neuronal cell line) or Jurkat (human lymphoid T-cell line).
(§3) The substances (50 mM), dissolved in DMSO (dimethyl sulphoxide), are examined on microtitre plates (for example 96-well MTP) in final concentrations of 250-0.5 μM (micromolar) in two replications (4 substances/plate). In the case of potent substances, the dilutions are continued for several plates up to 0.5 pM (picomolar). Also examined are toxic and cytostatic effects of the substances. After an appropriate dilution of the substances (1:2) on the microtitre plate in medium, a suspension of cells ([…] cells per well) such as, for example, of Vero cells in M199 (medium 199) with 5% foetal calf serum, 2 mM glutamine and optionally 100 IU/ml penicillin and 100 μg/ml streptomycin or of MEF cells in EMEM (Eagle's Minimum Essential Medium) with 10% foetal calf serum, 2 mM glutamine and optionally 100 IU/ml penicillin and 100 μg/ml streptomycin, or of HELF cells in EMEM with 10% foetal calf serum, 2 mM glutamine and optionally 100 IU/ml penicillin and 100 μg/ml streptomycin, or of NT2 and Jurkat cells in DMEM ([…] glucose plus pyridoxin) with 10% foetal calf serum, 2 mM glutamine, 1 mM sodium pyruvate, non-essential amino acids and optionally 100 IU/ml penicillin and 100 μg/ml streptomycin, is added to each well and the cells in the relevant wells are infected with an appropriate amount of virus (HSV-1 F or HSV-2 G having an m.o.i. (multiplicity of infection) of 0.0025 for HELF, Vero and MEF cells and an m.o.i. of 0.1 for NT2 and Jurkat cells). The plates are then incubated at 37° C. in a CO2 incubator (5% CO2) for several days. […] The plates are initially evaluated visually using a microscope and then analysed using a fluorescent dye. To this end, the cell supernatant of all wells of the MTP is aspirated and the wells are filled with 200 μl of PBS wash solution. The PBS is then aspirated and all the wells are filled with 200 μl of fluorescent dye solution (fluorescein diacetate, 10 μg/ml in PBS). After an incubation time of 30-90 min, the test plates are read in a fluorescence detector at an excitation wavelength of 485 nm and an emission wavelength of 538 nm.

HSV-2 G = experiment: anti-HSV screening test (cytopathogenic effect, fluorescein diacetate readout) in Vero cells, HSV-2 G; assay type: cell-based; settings: read-out: IC50 [μM] HSV-2 G/Vero
Experimental: as §1, §2, §3

HSV-1 = experiment: in-vivo action: survival of intranasally HSV-infected mice; design: species or system BALB/cABom strain; settings: HSV-1, intranasal infection 5×10^4 Pfu, female BALB/cABom mice; treated 3 times per day for 5 days from 6 hours after infection; from survival curves
Experimental: 6-week-old female mice, BALB/cABom strain were obtained from a commercial breeder (Bomholtgard Breeding and Research Centre Ltd.).
The animals were anaesthetized with diethyl ether (Merck) in a sealed glass vessel. 50 μl of a dilution of the virus stock (infection dose 5×10^4 Pfu) were introduced into the nose of the anaesthetized animals using an Eppendorf pipette. In 90-100% of the animals, this infection dose causes death by a generalized infection with prominent respiratory and central-nervous symptoms on average after 5 to 8 days.
6 hours after the infection, the animals were treated with doses of 0.1-100 mg/kg of body mass, 3 times per day, at 7 a.m., 2 p.m. and 7 p.m., for a period of 5 days. The substances were pre-dissolved in DMSO and resuspended in tylose/PBS (Hoechst) (final concentration 1.5% DMSO, 0.5% tylose in PBS).
After the last administration, the animals were monitored further and the time of death was determined.

[1] = Human alphaherpesvirus 1, HSV-1 F, Vero cells, half-maximal fluorescence intensity with respect to the non-infected cell control
[2] = Human alphaherpesvirus 2, HSV-2 G, Vero cells, half-maximal fluorescence intensity with respect to the non-infected cell control

## CCOc1ccc(NC(=O)C(C)c2nc(C)c(S(N)(=O)=O)s2)cc1 (centres unmarked) [Example 4, 2-[5-(Aminosulphonyl)-4-methyl-1,3-thiazol-2-yl]-N-(4-ethoxyphenyl)-propanamide]
HSV-1 F; [1]
  IC50: 0.75 µM
HSV-2 G; [2]
  IC50: 0.75 µM

## Cc1nc(C(C)C(=O)Nc2ccc(-c3ccccc3)cc2)sc1S(N)(=O)=O (centres unmarked) [Example 1, 2-[5-(Aminosulphonyl)-4-methyl-1,3-thiazol-2-yl]-N-(1,1′-biphenyl-4-yl)-propanamide]
HSV-1 F; [1]
  IC50: 0.05 µM
HSV-2 G; [2]
  IC50: 0.03 µM

## Cc1nc(C(C)C(=O)Nc2ccc(-c3cc(F)ccc3F)cc2)sc1S(N)(=O)=O (centres unmarked) [Example 3, 2-[5-(Aminosulphonyl)-4-methyl-1,3-thiazol-2-yl]-N-(2′,5′-difluoro-1,1′-biphenyl-4-yl)propanamide]
HSV-1 F; Human alphaherpesvirus 1, Vero
  IC50: 0.05 µM
HSV-2 G; Human alphaherpesvirus 2, Vero
  IC50: 0.01 µM
HSV-1
  ED90 (90% of the animals survive at this dose): about 3 mg/kg

## Cc1nc(C(C)C(=O)Nc2ccc(-c3ccccn3)cc2)sc1S(N)(=O)=O (centres unmarked) [Example 2, 2-[5-(Aminosulphonyl)-4-methyl-1,3-thiazol-2-yl]-N-[4-(2-pyridinyl)-phenyl]propanamide]
HSV-1 F; [1]
  IC50: 0.2 µM
HSV-2 G; [2]
  IC50: 0.4 µM

## CNS(=O)(=O)c1sc(C(C)C(=O)Nc2ccc(-c3ccccc3)cc2)nc1C (centres unmarked) [Example 5, N-(1,1′-Biphenyl-4-yl)-2-{4-methyl-5-[(methylamino)sulphonyl]-1,3-thiazol-2-yl}propanamide]
HSV-1 F; [1]
  IC50: 0.1 µM
HSV-2 G; [2]
  IC50: 0.06 µM
